Data from ChEMBL document CHEMBL1909046, “DrugMatrix in vitro pharmacology data”.

Columns and labels:
[1] = target: D(3) dopamine receptor (Homo sapiens, UniProt P35462); assay: DRUGMATRIX: Dopamine D3 radioligand binding (ligand: [3H] Spiperone); format: cell membranes, CHO, Membrane; conditions: for Ki: read-out: Ki
[2] = DRUGMATRIX: GABAA, Muscimol, Central radioligand binding (ligand: [3H] Muscimol); format: cell membranes, Rattus norvegicus, Wistar, Brain, Membrane; conditions: Not Active = under 50% inhibition at 10 µM
[3] = DRUGMATRIX: GABAA, Chloride Channel, TBOB radioligand binding (ligand: [3H] TBOB); format: cell membranes, Rattus norvegicus, Wistar, Cerebral cortex, Membrane; conditions: Not Active = under 50% inhibition at 10 µM
[4] = target: Insulin receptor (Rattus norvegicus, UniProt P15127); format: cell membranes, Wistar, Liver, Membrane; further: in other assays of this panel Not Active means under 50% inhibition at 10 µM
Chain of Insulin receptor (P15127 27-759 limits assumed): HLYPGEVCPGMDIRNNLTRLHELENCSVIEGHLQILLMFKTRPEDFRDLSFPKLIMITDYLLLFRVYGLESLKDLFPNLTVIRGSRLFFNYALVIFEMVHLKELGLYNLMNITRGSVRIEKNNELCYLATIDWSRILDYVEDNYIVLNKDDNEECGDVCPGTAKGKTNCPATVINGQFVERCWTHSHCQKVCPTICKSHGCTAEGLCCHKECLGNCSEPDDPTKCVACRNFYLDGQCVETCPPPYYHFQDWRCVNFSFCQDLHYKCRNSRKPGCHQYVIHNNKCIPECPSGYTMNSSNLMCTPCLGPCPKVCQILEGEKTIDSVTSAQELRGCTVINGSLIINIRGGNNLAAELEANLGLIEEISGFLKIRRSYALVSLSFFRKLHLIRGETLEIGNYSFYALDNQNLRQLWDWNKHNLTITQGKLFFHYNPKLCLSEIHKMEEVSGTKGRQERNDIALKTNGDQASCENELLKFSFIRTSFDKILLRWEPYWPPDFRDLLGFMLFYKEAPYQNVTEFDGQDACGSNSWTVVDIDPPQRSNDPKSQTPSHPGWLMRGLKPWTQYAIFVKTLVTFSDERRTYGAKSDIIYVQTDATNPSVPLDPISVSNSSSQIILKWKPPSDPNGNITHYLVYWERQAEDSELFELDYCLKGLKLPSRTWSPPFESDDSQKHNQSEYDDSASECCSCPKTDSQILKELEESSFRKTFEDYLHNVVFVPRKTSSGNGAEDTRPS
Chain of Insulin receptor (P15127 764-1383 limits assumed): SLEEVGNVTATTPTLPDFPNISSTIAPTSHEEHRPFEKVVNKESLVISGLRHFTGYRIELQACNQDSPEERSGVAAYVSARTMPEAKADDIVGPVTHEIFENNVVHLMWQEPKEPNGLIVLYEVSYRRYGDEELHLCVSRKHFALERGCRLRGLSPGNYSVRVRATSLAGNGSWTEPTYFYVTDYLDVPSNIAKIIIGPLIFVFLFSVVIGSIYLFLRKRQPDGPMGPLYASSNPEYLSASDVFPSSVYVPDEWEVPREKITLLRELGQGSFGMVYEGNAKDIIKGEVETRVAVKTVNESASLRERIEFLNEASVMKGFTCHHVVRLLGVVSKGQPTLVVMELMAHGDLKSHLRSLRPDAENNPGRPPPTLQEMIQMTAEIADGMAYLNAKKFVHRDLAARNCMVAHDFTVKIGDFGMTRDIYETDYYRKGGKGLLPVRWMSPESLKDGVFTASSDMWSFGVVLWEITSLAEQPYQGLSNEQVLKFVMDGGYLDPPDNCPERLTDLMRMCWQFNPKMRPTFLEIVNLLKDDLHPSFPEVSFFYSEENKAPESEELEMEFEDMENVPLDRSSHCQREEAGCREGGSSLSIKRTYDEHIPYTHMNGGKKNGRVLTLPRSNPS

[5] = target: Mu-type opioid receptor (Homo sapiens, UniProt P35372); assay: DRUGMATRIX: Opiate mu (OP3, MOP) radioligand binding (ligand: [3H] Diprenorphine); format: cell membranes, CHO-K1, Membrane; conditions: cho-k1; Not Active = under 50% inhibition at 10 µM
Chain of Mu-type opioid receptor (P35372 whole entry): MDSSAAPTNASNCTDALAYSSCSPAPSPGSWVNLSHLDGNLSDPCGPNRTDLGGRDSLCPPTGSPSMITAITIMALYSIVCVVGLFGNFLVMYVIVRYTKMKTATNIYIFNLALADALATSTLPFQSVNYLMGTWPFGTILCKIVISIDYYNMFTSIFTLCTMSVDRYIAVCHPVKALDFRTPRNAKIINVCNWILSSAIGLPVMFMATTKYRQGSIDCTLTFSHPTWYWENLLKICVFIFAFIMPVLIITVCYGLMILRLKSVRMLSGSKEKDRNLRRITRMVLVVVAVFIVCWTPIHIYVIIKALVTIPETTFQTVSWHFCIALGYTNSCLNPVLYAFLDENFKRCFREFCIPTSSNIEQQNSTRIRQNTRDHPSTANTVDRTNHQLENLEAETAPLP

[6] = target: T1, Cytochrome P450 1A2 (Homo sapiens, UniProt P05177); conditions: bti-tn-5b1-4; further: in other assays of this panel Not Active means under 50% inhibition at 10 µM
T1 sequence (P05177 whole entry): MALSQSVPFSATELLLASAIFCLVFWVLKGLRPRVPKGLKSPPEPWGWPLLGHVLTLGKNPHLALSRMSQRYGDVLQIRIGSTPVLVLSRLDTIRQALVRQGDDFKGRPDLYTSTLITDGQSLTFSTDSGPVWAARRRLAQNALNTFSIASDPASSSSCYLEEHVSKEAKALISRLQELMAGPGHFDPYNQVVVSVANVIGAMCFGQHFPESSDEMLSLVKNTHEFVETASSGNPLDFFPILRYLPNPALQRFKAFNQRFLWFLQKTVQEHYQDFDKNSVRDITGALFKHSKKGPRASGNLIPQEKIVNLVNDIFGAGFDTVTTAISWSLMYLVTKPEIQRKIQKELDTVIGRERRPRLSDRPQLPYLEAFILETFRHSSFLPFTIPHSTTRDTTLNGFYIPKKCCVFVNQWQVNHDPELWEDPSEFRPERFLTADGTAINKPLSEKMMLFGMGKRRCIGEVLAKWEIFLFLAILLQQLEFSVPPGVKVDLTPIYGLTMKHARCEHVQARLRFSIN

[7] = target: T2, Estrogen receptor (Homo sapiens, UniProt P03372); conditions: sf9; further: in other assays of this panel Not Active means under 50% inhibition at 10 µM
T2 sequence (P03372 whole entry): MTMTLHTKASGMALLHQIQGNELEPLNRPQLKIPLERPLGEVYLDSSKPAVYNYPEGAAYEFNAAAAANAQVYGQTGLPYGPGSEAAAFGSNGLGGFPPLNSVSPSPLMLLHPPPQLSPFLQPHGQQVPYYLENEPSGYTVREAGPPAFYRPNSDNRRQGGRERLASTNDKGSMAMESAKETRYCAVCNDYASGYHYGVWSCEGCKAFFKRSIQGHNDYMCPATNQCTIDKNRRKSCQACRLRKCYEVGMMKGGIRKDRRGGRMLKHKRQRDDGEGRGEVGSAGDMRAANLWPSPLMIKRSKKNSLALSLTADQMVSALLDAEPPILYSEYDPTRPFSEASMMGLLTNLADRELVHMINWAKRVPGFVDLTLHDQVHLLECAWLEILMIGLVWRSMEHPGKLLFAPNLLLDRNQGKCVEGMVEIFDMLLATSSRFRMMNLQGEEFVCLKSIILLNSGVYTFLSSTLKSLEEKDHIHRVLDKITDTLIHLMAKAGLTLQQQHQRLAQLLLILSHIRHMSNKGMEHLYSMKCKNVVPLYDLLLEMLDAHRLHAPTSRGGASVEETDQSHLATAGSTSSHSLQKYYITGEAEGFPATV

Chain of D(3) dopamine receptor (P35462 whole entry): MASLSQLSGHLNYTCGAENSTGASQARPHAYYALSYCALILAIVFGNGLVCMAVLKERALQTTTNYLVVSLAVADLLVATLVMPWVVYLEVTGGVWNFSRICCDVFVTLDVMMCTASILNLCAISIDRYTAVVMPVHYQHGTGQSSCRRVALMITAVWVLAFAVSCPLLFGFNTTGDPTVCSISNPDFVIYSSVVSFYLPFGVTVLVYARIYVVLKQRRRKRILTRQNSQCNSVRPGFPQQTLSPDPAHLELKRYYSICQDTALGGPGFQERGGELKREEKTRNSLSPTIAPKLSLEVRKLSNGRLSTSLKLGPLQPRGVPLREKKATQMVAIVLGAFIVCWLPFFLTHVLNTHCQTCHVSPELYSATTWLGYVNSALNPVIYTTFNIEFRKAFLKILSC

CO[C@@]1(NC(=O)CSCC#N)C(=O)N2C(C(=O)O)=C(CSc3nnnn3C)CS[C@@H]21 [CEFMETAZOLE]
Not Active: IC50 ([1]; cho) | IC50 [2] | Ki [2] | IC50 [3] | Ki [3] | IC50 [4] | IC50 [5] | IC50 [6] | Ki [6] | IC50 [7]

CC(C)(Oc1ccc(C2CC2(Cl)Cl)cc1)C(=O)O (configuration not stated) [CIPROFIBRATE]
Not Active: IC50 ([1]; cho) | IC50 [2] | Ki [2] | IC50 [3] | Ki [3] | IC50 [4] | IC50 [5] | IC50 [6] | Ki [6] | IC50 [7]

CC[C@H]1OC(=O)[C@H](C)[C@@H](O[C@H]2C[C@@](C)(OC)[C@@H](O)[C@H](C)O2)[C@H](C)[C@@H](O[C@@H]2O[C@H](C)C[C@H](N(C)C)[C@H]2O)[C@](C)(OC)C[C@@H](C)C(=O)[C@H](C)[C@@H](O)[C@]1(C)O [CLARITHROMYCIN]
Not Active: IC50 ([1]; cho) | IC50 [2] | Ki [2] | IC50 [3] | Ki [3] | IC50 [4] | IC50 [5] | IC50 [6] | Ki [6] | IC50 [7]

O=C(O)c1cc(=O)c2c(OCC(O)COc3cccc4oc(C(=O)O)cc(=O)c34)cccc2o1 [CROMOLYN]
Not Active: IC50 ([1]; cho) | IC50 [2] | Ki [2] | IC50 [3] | Ki [3] | IC50 [4] | IC50 [5] | IC50 [6] | Ki [6] | IC50 [7]

O=P1(N(CCCl)CCCl)NCCCO1 (configuration not stated) [CYCLOPHOSPHAMIDE ANHYDROUS]
Not Active: IC50 ([1]; cho) | IC50 [2] | Ki [2] | IC50 [3] | Ki [3] | IC50 [4] | IC50 [5] | IC50 [6] | Ki [6] | IC50 [7]

CCN[C@@H](C)Cc1cccc(C(F)(F)F)c1 [DEXFENFLURAMINE]
Not Active: IC50 ([1]; cho) | IC50 [2] | Ki [2] | IC50 [3] | Ki [3] | IC50 [4] | IC50 [5] | IC50 [6] | Ki [6] | IC50 [7]

C[C@H](C(=O)O)c1cccc(C(=O)c2ccccc2)c1 [DEXKETOPROFEN]
Not Active: IC50 ([1]; cho) | IC50 [2] | Ki [2] | IC50 [3] | Ki [3] | IC50 [4] | IC50 [5] | IC50 [6] | Ki [6] | IC50 [7]

CN1C[C@H](C(=O)N[C@]2(C)O[C@@]3(O)[C@@H]4CCCN4C(=O)[C@H](Cc4ccccc4)N3C2=O)C[C@@H]2c3cccc4[nH]cc(c34)C[C@H]21 [DIHYDROERGOTAMINE]
Not Active: IC50 [2] | Ki [2] | IC50 [3] | Ki [3] | IC50 [4] | IC50 [5] | IC50 [6] | Ki [6] | IC50 [7]
1.81 nM: Ki [1]
5.34 nM: IC50 ([1]; read-out: IC50)

CC(CCc1ccc(O)cc1)NCCc1ccc(O)c(O)c1 (configuration not stated) [DOBUTAMINE]
1690 nM: Ki [1]
4990 nM: IC50 ([1]; read-out: IC50)
Not Active: IC50 [2] | Ki [2] | IC50 [3] | Ki [3] | IC50 [4] | IC50 [5] | IC50 [6] | Ki [6] | IC50 [7]

CCn1cc(C(=O)O)c(=O)c2cc(F)c(N3CCNCC3)nc21 [ENOXACIN]
Not Active: IC50 ([1]; cho) | IC50 [2] | Ki [2] | IC50 [3] | Ki [3] | IC50 [4] | IC50 [5] | IC50 [6] | Ki [6] | IC50 [7]

CCC(=O)O[C@H]1[C@H](O[C@@H]2[C@@H](C)[C@H](O[C@H]3C[C@@](C)(OC)[C@@H](O)[C@H](C)O3)[C@@H](C)C(=O)O[C@H](CC)[C@@](C)(O)[C@H](O)[C@@H](C)C(=O)[C@H](C)C[C@@]2(C)O)O[C@H](C)C[C@@H]1N(C)C [ERYTHROMYCIN PROPIONATE]
Not Active: IC50 ([1]; cho) | IC50 [2] | Ki [2] | IC50 [3] | Ki [3] | IC50 [4] | IC50 [5] | IC50 [6] | Ki [6] | IC50 [7]

C=C(CC)C(=O)c1ccc(OCC(=O)O)c(Cl)c1Cl [ETHACRYNIC ACID]
Not Active: IC50 ([1]; cho) | IC50 [2] | Ki [2] | IC50 [3] | Ki [3] | IC50 [4] | IC50 [5] | IC50 [6] | Ki [6] | IC50 [7]

OCCO [ETHYLENE GLYCOL]
Not Active: IC50 ([1]; cho) | IC50 [2] | Ki [2] | IC50 [3] | Ki [3] | IC50 [4] | IC50 [5] | IC50 [6] | Ki [6] | IC50 [7]

CC(=O)OCC(CCn1cnc2cnc(N)nc21)COC(C)=O [FAMCICLOVIR]
Not Active: IC50 ([1]; cho) | IC50 [2] | Ki [2] | IC50 [3] | Ki [3] | IC50 [4] | IC50 [5] | IC50 [6] | Ki [6] | IC50 [7]

O=C(O)Cc1ccc(-c2ccccc2)cc1 [FELBINAC]
Not Active: IC50 ([1]; cho) | IC50 [2] | Ki [2] | IC50 [3] | Ki [3] | IC50 [4] | IC50 [5] | IC50 [6] | Ki [6] | IC50 [7]

CC(C(=O)O)c1ccc(-c2ccccc2)c(F)c1 (configuration not stated) [FLURBIPROFEN]
Not Active: IC50 ([1]; cho) | IC50 [2] | Ki [2] | IC50 [3] | Ki [3] | IC50 [4] | IC50 [5] | IC50 [6] | Ki [6] | IC50 [7]

NC[C@@H]1O[C@H](O[C@H]2[C@@H](O)[C@H](O[C@@H]3[C@@H](O)[C@H](N)C[C@H](N)[C@H]3O[C@H]3O[C@H](CN)[C@@H](O)[C@H](O)[C@H]3N)O[C@@H]2CO)[C@H](N)[C@@H](O)[C@@H]1O [FRAMYCETIN]
Not Active: IC50 ([1]; cho) | IC50 [2] | Ki [2] | IC50 [3] | Ki [3] | IC50 [4] | IC50 [5] | IC50 [6] | Ki [6] | IC50 [7]

C[C@H]([C@](O)(Cn1cncn1)c1ccc(F)cc1F)S(C)(=O)=O [GENACONAZOLE]
Not Active: IC50 ([1]; cho) | IC50 [2] | Ki [2] | IC50 [3] | Ki [3] | IC50 [4] | IC50 [5] | IC50 [6] | Ki [6] | IC50 [7]

Cc1c(F)c(N2CCNC(C)C2)cc2c1c(=O)c(C(=O)O)cn2C1CC1 (configuration not stated) [GREPAFLOXACIN]
Not Active: IC50 ([1]; cho) | IC50 [2] | Ki [2] | IC50 [3] | Ki [3] | IC50 [4] | IC50 [5] | IC50 [6] | Ki [6] | IC50 [7]

N=C(N)N/N=C/c1c(Cl)cccc1Cl [GUANABENZ]
Not Active: IC50 ([1]; cho) | IC50 [2] | Ki [2] | IC50 [3] | Ki [3] | IC50 [4] | IC50 [5] | IC50 [6] | Ki [6] | IC50 [7]

CC[C@H](C)C(=O)O[C@H]1C[C@@H](C)C=C2C=C[C@H](C)[C@H](CC[C@@H]3C[C@@H](O)CC(=O)O3)[C@H]21 [LOVASTATIN]
Not Active: IC50 ([1]; cho) | IC50 [2] | Ki [2] | IC50 [3] | Ki [3] | IC50 [4] | IC50 [5] | IC50 [6] | Ki [6] | IC50 [7]

CC(C(=O)O)c1ccc(CC2CCCC2=O)cc1 (configuration not stated) [LOXOPROFEN]
Not Active: IC50 ([1]; cho) | IC50 [2] | Ki [2] | IC50 [3] | Ki [3] | IC50 [4] | IC50 [5] | IC50 [6] | Ki [6] | IC50 [7]
